Among the data in article PMC8076852 (Frontiers in Molecular Biosciences, 2021) are K0.5 and Km values, retold here.

The subject of one data set is NCCCNCCCCNCCCN
The experiment in a line: purified protein. The settings on record: pH 8.0; 37.0 °C.

The next data set relates to T1, R1C3.
T1 construct: gene speG

A further data set concerns T2, R1C2.
T2 construct: gene speG

The next data set concerns T3, R1C1.
T3 construct: gene speG

Another data set relates to T4, R3C2.
T4 construct: gene speG

The Km is the substrate concentration at which the rate is half of its maximum.

On to “(Vibrio cholerae O1 biovar El Tor str. N16961)”, for which, in the data set with NCCCNCCCCNCCCN, the K0.5 amounted to 0.222 ± 0.005 mM.

With `NCCCNCCCCNCCCN` [spermine], the Km in the data set with R1C3 is 244 ± 20 µM; in the data set with R1C2, 364 ± 8 µM; in the data set on R1C1, 2530 ± 710 µM; in the data set with R3C2, 98 ± 8 µM.
